From US20080260639A1, “PREPARATION AND METHOD UTILIZING RADIOLABELED CHLOROTOXIN” (priority 2004, published 2008)

How the values were obtained:
[1] = Storage stability of 1-131 Hippuran: percent remaining bound; assay type: physicochemical; settings: 1 mCi per vial
Protocol: As another example, 1-131 Hippuran was prepared. The 1-131 Hippuran was prepared as follows: 9 vials were prepared of 1-131 Hippuran in solution with a radioactive concentration of MIBG of 1 mCi per vial. Each vial had 4 cc. The 1-131 in seven of those vials was then stabilized and lyophilized according to the process described in this invention. One vial was frozen and maintained at a temperature of −10 degrees, and another vial was maintained room temperature. Room temperature was selected because Hippuran is thought to be stable at room temperature even in conjunction with a radioisotope. […]

[2] = Storage stability of I-131 MIBG: percent of iodine remaining bound to the MIBG; assay type: physicochemical; settings: for percent of iodine remaining bound to the MIBG: 1 mCi per vial
Description: The radioactive diagnostic radiopharmaceutical in this invention requires no further cold or refrigerated storage, including with respect to shipping, subsequent to stabilization. The lyophilized radiopharmaceutical composition is reconstituted “on site” for administration to patients by the addition of a suitable diluent to bring the radiopharmaceutical complex into solution at the time of administration to the patient. For administration, the I-123 labeled MIBG in the vial must be reconstituted. Because of the minute quantity of material, the vial of radionuclide complex, in the preferred mode the I-123 labeled MIBG will appear empty. The MIBG ligand is stable for several days because of the absence of water which is the primary substance from which free radicals are generated by gamma ray collisions with water molecules. The gamma rays are being emitted by the radionuclide, that is the I-123. The health care provider would add up to 2 ml. of sterile normal saline. The desired dose would be withdrawn and measured in a dose calibrator of a type manufactured by Capintec of Montville, N.J. If the glass vial is measured in the dose calibrator, the person measuring the dose must recognize that the glass vial will decrease the apparent activity. Upon calibration of the desired dose, the I-123 MIBG now re-dissolved in the solution is promptly administered to the patient. The advantages are that the flash freezing and lowering of vapor pressure result in quick formation and evaporation or sublimation (evaporation from ice to water vapour (a gas)) of water from the I-123 MIBG. The I-123 MIBG need not be shipped frozen in dry ice nor need it be shipped for overnight delivery. Shipping in dry ice over a weekend is generally not commercially practical. The I-123 MIBG can be shipped over the weekend and be used on Monday while simply maintaining it at room temperature or below. In order to establish the advantages of the novel process and resulting composition, a series of tests were run utilizing meta iodo benzyl guanidine (MIBG) in which the radionuclide I-131 was the iodine in the MIBG.
The MIBG was prepared as follows: eight vials were prepared of MIBG in solution with a radioactive concentration of MIBG of 1 mCi per vial. The MIBG in six of those vials were then stabilized and lyophilized according to the process described in this invention. One vial was frozen and maintained at a temperature of −10 degrees, and another vial was simply refrigerated at approximately 5 degrees.
Six vials were prepared according to the process in this invention in order to enable several to be reconstituted from the lyophilized state and their activity tallied.
The radioactive concentration of MIBG per vial was 1 mCi per vial.
The results showing the percent of iodine remaining bound to the MIBG are set forth in table I. One each of the vials was reconstituted after 24, 48, 72 and 168 hours respectively.

Question: With `O=C([O-])CNC(=O)c1ccccc1[131I].[Na+]` [Hippuran] as the compound, how does the “percent of Hippuran remaining bound to the I-123” value ([1]; Frozen −10°, 0 hours) read?
Answer: 98%

Question: And the “percent of Hippuran remaining bound to the I-123” value ([1]; Frozen −10°, 24 hrs)?
Answer: 97.8%

Question: And the “percent of Hippuran remaining bound to the I-123” value ([1]; Frozen −10°, 48 hrs)?
Answer: 97%

Question: And the “percent of Hippuran remaining bound to the I-123” value ([1]; Frozen −10°, 72 hrs)?
Answer: 94%

Question: And the “percent of Hippuran remaining bound to the I-123” value ([1]; Frozen −10°, 96 hrs)?
Answer: 92.5%

Question: And the “percent of Hippuran remaining bound to the I-123” value ([1]; Frozen −10°, 120 hrs)?
Answer: 91%

Question: And the “percent of Hippuran remaining bound to the I-123” value ([1]; Lyophilized and stabilized per invention, stored at room temp., 0 hours)?
Answer: 98%

Question: And the “percent of Hippuran remaining bound to the I-123” value ([1]; Lyophilized and stabilized per invention, stored at room temp., 24 hrs)?
Answer: 98.4%

Question: What about the “percent of Hippuran remaining bound to the I-123” value ([1]; Lyophilized and stabilized per invention, stored at room temp., 48 hrs) of the same compound?
Answer: 98.6%

Question: What about the “percent of Hippuran remaining bound to the I-123” value ([1]; Lyophilized and stabilized per invention, stored at room temp., 72 hrs) of the same compound?
Answer: 98%

Question: And the “percent of Hippuran remaining bound to the I-123” value ([1]; Lyophilized and stabilized per invention, stored at room temp., 96 hrs)?
Answer: 98.4%

Question: What about the “percent of Hippuran remaining bound to the I-123” value ([1]; Lyophilized and stabilized per invention, stored at room temp., 120 hrs) of the same compound?
Answer: 98.5%

Question: What about the “percent of Hippuran remaining bound to the I-123” value ([1]; Room Temp. (solution, not lyophilized), 0 hours) of the same compound?
Answer: 98%

Question: And the “percent of Hippuran remaining bound to the I-123” value ([1]; Room Temp. (solution, not lyophilized), 24 hrs)?
Answer: 96%

Question: What about the “percent of Hippuran remaining bound to the I-123” value ([1]; Room Temp. (solution, not lyophilized), 48 hrs) of the same compound?
Answer: 95%

Question: And the “percent of Hippuran remaining bound to the I-123” value ([1]; Room Temp. (solution, not lyophilized), 72 hrs)?
Answer: 94.5%

Question: What about the “percent of Hippuran remaining bound to the I-123” value ([1]; Room Temp. (solution, not lyophilized), 96 hrs) of the same compound?
Answer: 92%

Question: What about the “percent of Hippuran remaining bound to the I-123” value ([1]; Room Temp. (solution, not lyophilized), 120 hrs) of the same compound?
Answer: 90%

Question: Which “percent of iodine remaining bound to the MIBG” value ([2]; Frozen −10°, 24 hours) does the source give for `N=C(N)NCc1cccc([131I])c1` [MIBG, meta iodo benzyl guanidine] here?
Answer: 94%

Question: What about the “percent of iodine remaining bound to the MIBG” value ([2]; Frozen −10°, 48 hours) of the same compound?
Answer: 91%

Question: What about the “percent of iodine remaining bound to the MIBG” value ([2]; Frozen −10°, 72 hours) of the same compound?
Answer: 84%

Question: And the “percent of iodine remaining bound to the MIBG” value ([2]; Frozen −10°, 168 hours (1 wk.))?
Answer: 72%

Question: And the “percent of iodine remaining bound to the MIBG” value ([2]; Lyophilized and stabilized per invention, stored at room temp., 24 hours)?
Answer: 97%

Question: And the “percent of iodine remaining bound to the MIBG” value ([2]; Refrigerated ~+5°, 24 hours)?
Answer: 92%

Question: And the “percent of iodine remaining bound to the MIBG” value ([2]; Refrigerated ~+5°, 48 hours)?
Answer: 85%

Question: And the “percent of iodine remaining bound to the MIBG” value ([2]; Refrigerated ~+5°, 72 hours)?
Answer: 77%

Question: And the “percent of iodine remaining bound to the MIBG” value ([2]; Refrigerated ~+5°, 168 hours (1 wk.))?
Answer: 55%

Question: What about the activity on storage ([2]; not stabilized and lyophilized per this invention) of the same compound?
Answer: deteriorated sharply
